{"source": "paper PMC8825254", "about": "“Rational design of Striga hermonthica-specific seed germination inhibitors” (Plant Physiology, 2021)", "key": {"ShHTL7": {"biological_target": "T1, ShHTL7 (Striga hermonthica, UniProt A0A0M3PNA2)", "T1 sequence (A0A0M3PNA2 1-271)": "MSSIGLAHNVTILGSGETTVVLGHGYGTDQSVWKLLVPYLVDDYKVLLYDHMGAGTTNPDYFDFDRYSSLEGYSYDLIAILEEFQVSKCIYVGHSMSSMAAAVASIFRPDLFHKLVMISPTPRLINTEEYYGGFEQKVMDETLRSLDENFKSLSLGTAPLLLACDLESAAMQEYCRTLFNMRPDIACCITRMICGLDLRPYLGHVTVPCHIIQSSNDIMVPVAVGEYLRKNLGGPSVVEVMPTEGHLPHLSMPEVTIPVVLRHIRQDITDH", "assay": "YLG hydrolysis competition assay with ShHTL7", "format": "biochemical", "protocol": "About 0.33 µM of ShHTL7 protein was used to conduct in vitro hydrolysis of YLG (1 µM) as a substrate in a total volume of 100 µL of phosphate-buffered saline (1× PBS) containing 0.1% DMSO in 96-well black plate (Greiner Kremsmünster, Austria; [Tsuchiya et al., 2015]). The hydrolysis of YLG over time and changes in the fluorescence intensity was measured by SpectraMax i3 (Molecular Devices, San Jose, CA, USA) using an excitation wavelength of 480 nm and detection wavelength of 520 nm and recorded at 10 min intervals for 2 h. YLG in 1× PBS without protein was used as a control. […] Measurement of the fluorescence was conducted in SpectraMax i3 (Molecular Devices) using the above-mentioned method. The relative fluorescence unit was calculated by subtracting the auto-fluorescence of YLG in the buffer from the fluorescence values of YLG in the presence of a protein. The inhibitory curve and IC50 were determined using https://www.aatbio.com/tools/ic50-calculator website."}, "[1]": {"system": "Rice seeds (cv Nipponbare)", "assay": "Rice germination and seedling growth in response to inhibitors", "format": "in vivo, rice (Oryza sativa)", "details": "result in words", "protocol": "Rice seeds (cv Nipponbare) were surface sterilized in 2.5% NaClO and 0.05% of Tween-20 for 10 min, and rinsed 6 times with sterilized MilliQ water. Seeds were imbibed in sterilized water at 30°C for 24 h in the dark. Next day, ∼3 mL of each inhibitor at different concentrations (3, 6, 12, 25, 50, and 100 μM) was added along with 0.5 Murashige and Skoog (MS) medium into 24-well plate, and one imbibed rice seed was placed in each well. The experiment was performed in six replications (one plant/well, n = 6) for each concentration. Nontreated rice seeds in 0.5-MS solution were included as a control. Seeds were allowed to germinate at 30°C in the dark for 48 h for monitoring seeds germination, and seeds were moved to a growth chamber with white fluorescent light (130–180 μM m^−2 s^−1) and12 h:12 h (Light/Dark (L/D)) period at 28°C. After 1 week, length of rice seedlings was measured and recorded, and pictures of seedlings were taken."}}, "data": [{"compound": "COc1ccc(CCCc2cccc3c2CCN3C(=O)n2ccnn2)cc1", "note": "[KK023-N1]", "values": [{"measurement": "IC50", "setting": "ShHTL7", "result": 1.78, "unit": "µM"}, {"measurement": "Effect on rice seedling plant height", "setting": "[1]; all treatments (3-100 µM), 1 week", "result": "no effect on plant height was observed"}, {"measurement": "Effect on rice seed germination", "setting": "[1]; up to 100 µM", "result": "did not detect any effect on seed germination"}, {"measurement": "Phenotype of treated rice seedlings versus control", "setting": "[1]; up to 100 µM", "result": "did not show any significant phenotypic difference"}]}]}
